Bounds are passed on as bounds.

In this assay the test system is bovine cardiac myofibrils. Kind of assay: Myofibril assay: PK/LDH-coupled steady-state ATPase activity of skinned bovine cardiac myofibrils. The assay is classed as biochemical. As to conditions: Ca2+ activating to 75% of maximal rate. The procedure, abridged: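 Steady-state ATPase of detergent-skinned bovine left-ventricular myofibrils (1 mg/mL), PK/LDH-coupled NADH read at 340 nm, in PIPES/MgCl2 buffer pH 6.8 with 50 μM ATP, 0.6 mM EGTA and CaCl2 set for 50% or 75% activation. Inhibition of activity measured.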

For `CC(C)NC(=O)N1CC2(C1)C(=O)N(c1ncc(Cl)cc1F)CC(=O)N2[C@@H](C)c1ccc(Cl)cc1` [Compound 561, (S)-8-(5-chloro-3-fluoro-pyridin-2-yl)-5-(1-(4-chlorophenyl)ethyl)-N-isopropyl-6,9-dioxo-2,5,8-triazaspiro[3.5]nonane-2-carboxamide], the “CDMF75 IC15” value was found to be 19.8 µM.

In the case of `CC(C)N1CC(=O)N(Cc2ccc(C(F)(F)F)cc2)C2(CCN(C(=O)NC3CC3)C2)C1=O` (centres unmarked) [Compound 118, N-cyclopropyl-9-isopropyl-7,10-dioxo-6-(4-(trifluoromethyl)benzyl)-2,6,9-triazaspiro[4.5]decane-2-carboxamide], the “CDMF75 IC15” value was 14.0 µM.

In the case of `CC(C)N1CC(=O)N(Cc2ccc(Cl)cc2)C2(CN(c3cnnc(Cl)c3)C2)C1=O` [Compound 61, 5-(4-chlorobenzyl)-2-(6-chloropyridazin-4-yl)-8-isopropyl-2,5,8-triazaspiro[3.5]nonane-6,9-dione], the “CDMF75 IC15” value worked out at 22.9 µM.

For the compound `NC(=O)C12CC([C@@H]3C(=O)N(c4ncc(Cl)cc4F)CC(=O)N3Cc3ccc(Cl)cc3)(C1)C2` [Compound 837, (R)-3-(4-(5-chloro-3-fluoro-pyridin-2-yl)-1-(4-chloro-benzyl)-3,6-dioxo-piperazin-2-yl)bicyclo-[1.1.1]pentane-1-carboxamide], the “CDMF75 IC15” value was >39 µM.

For the compound `Cc1ccc(CN2C(=O)CN(c3ncc(Cl)cc3F)C(=O)[C@@H]2C23CC(C(N)=O)(C2)C3)cc1` [Compound 823, (S)-3-(4-(5-chloro-3-fluoropyridin-2-yl)-1-(4-methylbenzyl)-3,6-dioxopiperazin-2-yl)bicyclo[1.1.1]pentane-1-carboxamide], the “CDMF75 IC15” value came out at 2.3 µM.

For `CNC(=S)N1CC2(C1)C(=O)N(c1ccc(C#N)c(F)c1)CC(=O)N2Cc1ccc(C(F)(F)F)cc1` [Compound 195, 8-(4-cyano-3-fluorophenyl)-N-methyl-6,9-dioxo-5-(4-(trifluoromethyl)benzyl)-2,5,8-triazaspiro[3.5]nonane-2-carbothioamide], the “CDMF75 IC15” value came out at 0.4 µM.

On to `CC(=O)N1CC2(C1)C(=O)N(c1ccc(C#N)cc1F)CC(=O)N2Cc1ccc(Cl)cc1` [Compound 175, 4-(2-acetyl-5-(4-chlorobenzyl)-6,9-dioxo-2,5,8-triazaspiro[3.5]nonan-8-yl)-3-fluorobenzonitrile], for which the “CDMF75 IC15” value came to 1.2 µM.

Regarding `CC(C)[C@H]1C(=O)N(c2ccc(C#N)cc2F)CC(=O)N1Cc1ccc(C(F)(F)F)cc1` [Compound 283, (S)-3-fluoro-4-(3-isopropyl-2,5-dioxo-4-(4-(trifluoromethyl)benzyl)-piperazin-1-yl)benzonitrile], the “CDMF75 IC15” value came to 0.6 µM.

In the case of `CNC(=O)N1CC2(C1)C(=O)N([C@H]1CC[C@@H](C#N)C1)CC(=O)N2Cc1ccc(C(F)(F)F)cc1` [Compound 321, 8-((1S,3R)-3-cyano-cyclopentyl)-N-methyl-6,9-dioxo-5-(4-(trifluoromethyl)benzyl)-2,5,8-triazaspiro[3.5]-nonane-2-carboxamide], the “CDMF75 IC15” value came out at 22.1 µM.

On to `CNC(=O)N1CC2(C1)C(=O)N(C(C)C)CC(=O)N2Cc1ccc(Cl)cc1` [Compound 65, 5-(4-chlorobenzyl)-8-isopropyl-N-methyl-6,9-dioxo-2,5,8-triazaspiro[3.5]nonane-2-carboxamide], for which the “CDMF75 IC15” value is 9.8 µM.

Turning to `CC(C)N1CC(=O)N(Cc2ccc(Cl)cc2)C2(CN(c3ccncc3)C2)C1=O` [Compound 8, 5-(4-chlorobenzyl)-8-isopropyl-2-(pyridin-4-yl)-2,5,8-triazaspiro[3.5]-nonane-6,9-dione], the “CDMF75 IC15” value was found to be 3.3 µM.

`N#Cc1ccc(N2CC(=O)N(Cc3ccc(C(F)(F)F)cc3)C3(CN(C(=O)C4CC4)C3)C2=O)c(F)c1` [Compound 203, 4-(2-(cyclopropanecarbonyl)-6,9-dioxo-5-(4-(trifluoromethyl)benzyl)-2,5,8-triazaspiro[3.5]nonan-8-yl)-3-fluorobenzonitrile]: the “CDMF75 IC15” value was 0.6 µM.

Take `CC(C)N1CC(=O)N(Cc2ccc(C(F)(F)F)cc2)C2(CCN(C(N)=O)C2)C1=O` (centres unmarked) [Compound 107, 9-isopropyl-7,10-dioxo-6-(4-(trifluoromethyl)benzyl)-2,6,9-triazaspiro[4.5]decane-2-carboxamide]: the “CDMF75 IC15” value amounted to 12.7 µM.

Regarding `CC(=O)NCC1C(=O)N(c2ncc(Cl)cc2F)CC(=O)N1Cc1ccc(C(F)(F)F)cc1` (centres unmarked) [Compound 629, N-((4-(5-chloro-3-fluoro-pyridin-2-yl)-3,6-dioxo-1-(4-(trifluoromethyl)-benzyl)piperazin-2-yl)-methyl)acetamide], the “CDMF75 IC15” value was found to be 32.4 µM.

As to `COC(=O)N1CC2(C1)C(=O)N(C(C)C)CC(=O)N2Cc1ccc(Cl)cc1` [Compound 64, methyl 5-(4-chlorobenzyl)-8-isopropyl-6,9-dioxo-2,5,8-triazaspiro[3.5]-nonane-2-carboxylate], the “CDMF75 IC15” value was found to be 23.6 µM.

On to `O=C1CN(C2CCCC2)C(=O)C2(CCN(c3ccccn3)C2)N1Cc1ccc(Cl)cc1` (centres unmarked) [Compound 83, 6-(4-chlorobenzyl)-9-cyclopentyl-2-(pyridin-2-yl)-2,6,9-triazaspiro[4.5]-decane-7,10-dione], for which the “CDMF75 IC15” value came out at 1.3 µM.

In the case of `Cc1cc(N2CCC3(C2)C(=O)N(C(C)C)CC(=O)N3Cc2ccc(C(F)(F)F)cc2)cc(C)n1` (centres unmarked) [Compound 77, 2-(2,6-dimethylpyridin-4-yl)-9-isopropyl-6-(4-(trifluoromethyl)benzyl)-2,6,9-triazaspiro[4.5]-decane-7,10-dione], the “CDMF75 IC15” value came to 13.0 µM.

In the case of `O=C1CN(c2ncc(Cl)cc2F)C(=O)C2(CC3(COC3)C2)N1Cc1ccc(C(F)F)cc1` [Compound 814, 10-(5-chloro-3-fluoro-pyridin-2-yl)-7-(4-(difluoromethyl)benzyl)-2-oxa-7,10-diazadispiro-[3.1.56.14]dodecane-8,11-dione], the “CDMF75 IC15” value is 0.8 µM.

As for `CC(C)N1CC(=O)N(Cc2ccc(Cl)cc2)C2(CN(c3ccc(Cl)cc3)C2)C1=O` [Compound 4, 5-(4-chlorobenzyl)-2-(4-chlorophenyl)-8-isopropyl-2,5,8-triazaspiro[3.5]-nonane-6,9-dione], the “CDMF75 IC15” value came to 2.5 µM.

Turning to `Cc1coc([C@H]2C[C@]3(C2)C(=O)N(c2ccc(C#N)cc2F)CC(=O)N3Cc2ccc(C(F)(F)F)cc2)n1` [Compound 442B], the “CDMF75 IC15” value worked out at 0.4 µM.

Take `CC(C)N1CC(=O)N(Cc2ccccc2)C(c2ccc(Cl)cc2)C1=O` (centres unmarked) [Compound 294, 4-benzyl-3-(4-chlorophenyl)-1-isopropylpiperazine-2,5-dione]: the “CDMF75 IC15” value turned out to be 33.3 µM.

For `CC(C)N1CC(=O)N(Cc2ccc(Cl)cc2)C2(CN(c3nc(C(N)=O)cs3)C2)C1=O` [Compound 40, 2-(5-(4-chlorobenzyl)-8-isopropyl-6,9-dioxo-2,5,8-triazaspiro[3.5]nonan-2-yl)thiazole-4-carboxamide], the “CDMF75 IC15” value is 7.2 µM.

In the case of `CC(=O)NCC1(C)C(=O)N(c2ncc(Cl)cc2F)CC(=O)N1Cc1ccc(C(F)(F)F)cc1` (single isomer, unassigned) [Compound 630B, N-((4-(5-chloro-3-fluoropyridin-2-yl)-2-methyl-3,6-dioxo-1-(4-(trifluoromethyl)benzyl)piperazin-2-yl)methyl)acetamide], the “CDMF75 IC15” value was >39 µM.

As to `CNC(=O)N1CC2(C1)C(=O)N(c1ccc(C#N)nc1)CC(=O)N2Cc1ccc(C(F)(F)F)cc1` [Compound 147, 8-(6-cyanopyridin-3-yl)-N-methyl-6,9-dioxo-5-(4-(trifluoromethyl)benzyl)-2,5,8-triazaspiro[3.5]-nonane-2-carboxamide], the “CDMF75 IC15” value stood at 8.1 µM.

On to `O=C1C(C2CCSCC2)N(Cc2ccc(C(F)(F)F)cc2)C(=O)CN1c1ncc(Cl)cc1F` (centres unmarked) [Compound 687, 1-(5-chloro-3-fluoropyridin-2-yl)-3-(tetrahydro-2H-thiopyran-4-yl)-4-(4-(trifluoromethyl)benzyl)-piperazine-2,5-dione], for which the “CDMF75 IC15” value came out at 6.2 µM.

Regarding `CC(C)N1CC(=O)N(Cc2ccc(Cl)cc2)C2(CN(c3ccccn3)C2)C1=O` [Compound 6, 5-(4-chlorobenzyl)-8-isopropyl-2-(pyridin-2-yl)-2,5,8-triazaspiro[3.5]-nonane-6,9-dione], the “CDMF75 IC15” value was 0.9 µM.

Regarding `CC(C)N1CC(=O)N(Cc2cccc(C(F)(F)F)c2)C(c2ccc(Cl)cc2)C1=O` (centres unmarked) [Compound 308, 3-(4-chlorophenyl)-1-isopropyl-4-(3-(trifluoro-methyl)benzyl)piperazine-2,5-dione], the “CDMF75 IC15” value was found to be 22.7 µM.

On to `CC(C)N1CC(=O)N(Cc2ccc(Cl)cc2)C2(Cc3ccccc3C2)C1=O` [Compound 317, 1′-(4-chlorobenzyl)-4′-isopropyl-1,3-dihydrospiro[indene-2,2′-piperazine]-3′,6′-dione], for which the “CDMF75 IC15” value was determined as 2.3 µM.

Regarding `CC(C)N1CC(=O)N(Cc2ccc(Cl)cc2)C2(CN(c3cccnc3)C2)C1=O` [Compound 7, 5-(4-chlorobenzyl)-8-isopropyl-2-(pyridin-3-yl)-2,5,8-triazaspiro[3.5]-nonane-6,9-dione], the “CDMF75 IC15” value stood at 1.9 µM.

Take `O=C1C(CC2COC2)N(Cc2ccc(C(F)(F)F)cc2)C(=O)CN1c1ncc(Cl)cc1F` (centres unmarked) [Compound 639, 1-(5-chloro-3-fluoropyridin-2-yl)-3-(oxetan-3-ylmethyl)-4-(4-(trifluoromethyl)-benzyl)piperazine-2,5-dione]: the “CDMF75 IC15” value turned out to be 1.4 µM.

On to `Cc1ccc(N2CC3(C2)C(=O)N(C(C)C)CC(=O)N3Cc2ccc(Cl)cc2)nn1` [Compound 55, 5-(4-chlorobenzyl)-8-isopropyl-2-(6-methylpyridazin-3-yl)-2,5,8-triazaspiro[3.5]-nonane-6,9-dione], for which the “CDMF75 IC15” value was 6.7 µM.

With `NC(=O)C12CC([C@H]3C(=O)N(c4ncc(Cl)cc4F)CC(=O)N3Cc3ccc(Cl)cc3)(C1)C2` [Compound 836, (S)-3-(4-(5-chloro-3-fluoro-pyridin-2-yl)-1-(4-chloro-benzyl)-3,6-dioxo-piperazin-2-yl)bicyclo-[1.1.1]pentane-1-carboxamide], the “CDMF75 IC15” value was 1.42 µM.

The record behind these values is patent US11414424B2, “Cardiac sarcomere inhibitors” (Cytokinetics, Inc., priority 2018, dated 2022).
